Results on 27 compounds are retold here after patent US11203600B2 (Denali Therapeutics Inc., priority 2017, dated 2021).

Chain of GST-hRIPK1 (8-327) (Q13546 8-327): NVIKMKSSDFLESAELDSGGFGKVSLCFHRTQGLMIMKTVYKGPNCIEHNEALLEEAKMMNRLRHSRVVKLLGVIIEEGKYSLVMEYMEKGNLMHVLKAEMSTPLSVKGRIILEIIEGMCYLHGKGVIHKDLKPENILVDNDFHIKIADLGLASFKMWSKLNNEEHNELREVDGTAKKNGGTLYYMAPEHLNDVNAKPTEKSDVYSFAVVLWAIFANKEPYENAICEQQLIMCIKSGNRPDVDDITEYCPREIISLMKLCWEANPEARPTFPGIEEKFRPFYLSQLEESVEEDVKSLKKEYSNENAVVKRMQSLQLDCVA

The target of one test is GST-hRIPK1 (8-327) (Homo sapiens (Human), UniProt Q13546). The experiment in a line: Fluorescent Polarization Binding (FP Binding) assay, RIPK1. The following applies: 10 nM GST-hRIPK1 (8-327), 5 nM fluorescent-labeled ligand, RT, 30 min, mean of at least two independent experiments. As for the experimental part:
Fluorescent Polarization Binding (FP Binding) assay (Berger S. B. et al. (2015) Cell Death Discovery, 1: 15009; Maki J. L. et al. (2012) Anal Biochem., 427(2): 164-174) was performed in polystyrene low volume 384-well black plate, at RT in a final volume of 10.1 μl/well using 10 nM of GST-hRIPK1 (8-327) enzyme and 5 nM of fluorescent-labeled ligand (14-(2-{[3-({2-{[4-(cyanomethyl)phenyl]amino]-6-[(5-cyclopropyl-1H-pyrazol-3-yl)amino]-4-pyrimidinyl}amino) propyl}amino}-2-oxoethyl)-16,16,18,18-tetramethyl-6,7,7a,8a,9,10,16,18-octahydrobenzo [2″,3″]indolizino[8″,7″:5′,6′]pyrano [3′,2′:3,4]pyrido[1,2-a]indo1-5-ium-2-sulfonate.
Test compounds were serially diluted in DMSO at 100 fold final concentrations in the assay (1% DMSO final). In each well of a 384-well Plate were dispensed 0.1 μL of compound solution (or DMSO for controls) followed by 5 μL of GST-hRIPK1 (8-327) at twice the final concentrations in assay buffer (50 mM HEPES pH 7.5, 10 mM NaCl, 50 mM MgCl2, 0.02% CHAPS, 0.5 mM DTT and 0.01% Pluronic F127). For negative control the enzyme addition was replaced by assay buffer only.
After addition of 5 μL of fluorescentlabeled ligand at twice the final concentrations in assay buffer, the plate was incubated at RT for […]. At the end, the binding was measured as FP value with the Envision (PerkinElmer) plate reader using filter for an excitation λ=531 nm FP and an emission λ=595 nm FP (S & P-pol). GST-hRIPK1 (8-327) enzyme was produced via Baculovirus expression.
Test compound inhibition was expressed as percent inhibition of internal assay controls. For concentration response curves, normalized data is fit and IC50 determined using XL-fit (IDBS) for Excel. The IC50 values were averaged to determine a mean value, for a minimum of two independent experiments. Results are shown in Table 2 (RIPK1 IC50) values: +++=0.1 nM<IC50<100 nM; ++=100 nM<IC50<1 μM; +=1 μM<IC50).
By IC50 is commonly meant the point on the concentration scale where inhibition reaches its midpoint. Read a low IC50 as greater potency. With `CC(C)(COC(F)(F)F)C(=O)N1CCOc2c(C#N)cncc2C1` [Example 51, 4-[2,2-dimethyl-3-(trifluoromethoxy)propanoyl]-3,5-dihydro-2H-pyrido[3,4-f][1,4]oxazepine-9-carbonitrile], the IC50 fell in the range of 0.1 to 100 nM.

The compound `N#Cc1cncc2c1OCCN(C(=O)[C@]13CCN(c4ncc(F)cn4)C[C@H]1C3)C2` (relative stereo) [Example 89, 4-(cis-3-(5-fluoropyrimidin-2-yl)-3-azabicyclo[4.1.0]heptane-6-carbonyl)-3,5-dihydro-2H-pyrido[3,4-f][1,4]oxazepine-9-carbonitrile] showed an IC50 of 0.1 to 100 nM.

With `CNc1nc(N2CCC(F)(C(=O)N3CCOc4c(C#N)cncc4C3)CC2)ncc1F` [Example 123, 4-[4-fluoro-1-[5-fluoro-4-(methylamino)pyrimidin-2-yl]piperidine-4-carbonyl]-3,5-dihydro-2H-pyrido[3,4-f][1,4]oxazepine-9-carbonitrile], the 50% inhibitory concentration (IC50) lay in the range of 100 to 1000 nM.

For `Cc1cncc2c1OCCN(C(=O)C(C)(C)C(F)F)C2` [Example 62, 3,3-difluoro-2,2-dimethyl-1-(9-methyl-3,5-dihydro-2H-pyrido[3,4-f][1,4]oxazepin-4-yl)propan-1-one], the IC50 is more than 1000 nM.

As to `Cn1ncc2cnc(N3CCC(F)(C(=O)N4CCOc5c(C#N)cncc5C4)CC3)cc21` [Example 107, 4-[4-fluoro-1-(1-methylpyrazolo[4,3-c]pyridin-6-yl)piperidine-4-carbonyl]-3,5-dihydro-2H-pyrido[3,4-f][1,4]oxazepine-9-carbonitrile], the IC50 fell in the range of 100 to 1000 nM.

`CC(C)(C(=O)N1CCOc2c(C#N)cncc2C1)C1CC1C(F)F` (stereo not drawn) [Example 82, 4-[2-(-2-(difluoromethyl)cyclopropyl)-2-methyl-propanoyl]-3,5-dihydro-2H-pyrido[3,4-f][1,4]oxazepine-9-carbonitrile] showed an IC50 of 100 to 1000 nM.

For the compound `N#Cc1cncc2c1OCCN(C(=O)C1(F)CCN(c3ccncn3)CC1)C2` [Example 88, 4-(4-fluoro-1-pyrimidin-4-yl-piperidine-4-carbonyl)-3,5-dihydro-2H-pyrido[3,4-f][1,4]oxazepine-9-carbonitrile], the IC50 fell in the range of 100 to 1000 nM.

For `CC(C)(C(=O)N1CCOc2c(F)cccc2C1)C(F)F` [Example 13, 3,3-difluoro-1-(9-fluoro-2,3-dihydrobenzo[f][1,4]oxazepin-4(5H)-yl)-2,2-dimethylpropan-1-one], the IC50 is 0.1 to 100 nM.

`CC(C)(C(=O)N1CCOc2c(F)cncc2C1)C(F)F` [Example 55, 3,3-difluoro-1-(9-fluoro-3,5-dihydro-2H-pyrido[3,4-f][1,4]oxazepin-4-yl)-2,2-dimethyl-propan-1-one] displayed an IC50 of 100 to 1000 nM.

The compound `CC(C)(C)C(=O)N1CCCc2ccccc2C1` [Example 3, 2,2-dimethyl-1-(1,3,4,5-tetrahydro-2-benzazepin-2-yl)propan-1-one] showed an IC50 of 100 to 1000 nM.

The compound `CC(C)(C(=O)N1CCOc2c(C#N)cncc2C1)C(F)(F)F` [Example 45, 4-(3,3,3-trifluoro-2,2-dimethyl-propanoyl)-3,5-dihydro-2H-pyrido[3,4-f][1,4]oxazepine-9-carbonitrile] came in with an IC50 of 0.1 to 100 nM.

On to `Cn1cnc2cnc(N3CCC(F)(C(=O)N4CCOc5c(C#N)cncc5C4)CC3)nc21` [Example 169, 4-[4-fluoro-1-(9-methylpurin-2-yl)piperidine-4-carbonyl]-3,5-dihydro-2H-pyrido[3,4-f][1,4]oxazepine-9-carbonitrile], for which the IC50 was in the range of 100 to 1000 nM.

For the compound `CC(C)(C(=O)N1CCOc2c(C#N)cncc2C1)C1(O)CC1` [Example 81, 4-(2-(1-hydroxycyclopropyl)-2-methylpropanoyl)-2,3,4,5-tetrahydropyrido[3,4-f][1,4]oxazepine-9-carbonitrile], the IC50 was more than 1000 nM.

In the case of `N#Cc1cncc2c1OCCN(C(=O)C1(F)CCN(c3ncc(C(F)F)cn3)CC1)C2` [Example 189, 4-[1-[5-(difluoromethyl)pyrimidin-2-yl]-4-fluoro-piperidine-4-carbonyl]-3,5-dihydro-2H-pyrido[3,4-f][1,4]oxazepine-9-carbonitrile], the IC50 is 100 to 1000 nM.

`COc1nc(N2CCC(OC)(C(=O)N3CCOc4c(F)cncc4C3)CC2)ncc1F` [Example 122, (9-fluoro-3,5-dihydro-2H-pyrido[3,4-f][1,4]oxazepin-4-yl)-[1-(5-fluoro-4-methoxy-pyrimidin-2-yl)-4-methoxy-4-piperidyl]methanone]: the IC50 fell in the range of 0.1 to 100 nM.

Take `CC1(C(=O)N2CCOc3c(C#N)cccc3C2)CCN(c2ncc(F)cn2)CC1` [Example 24, 4-[1-(5-fluoropyrimidin-2-yl)-4-methyl-piperidine-4-carbonyl]-3,5-dihydro-2H-1,4-benzoxazepine-9-carbonitrile]: the IC50 lay within 0.1 to 100 nM.

The compound `COc1nc(N2CCC(C(=O)N3CCOc4c(C#N)cncc4C3)CC2)ncc1Cl` [Example 129, 4-[1-(5-chloro-4-methoxy-pyrimidin-2-yl)piperidine-4-carbonyl]-3,5-dihydro-2H-pyrido[3,4-f][1,4]oxazepine-9-carbonitrile] returned an IC50 of 0.1 to 100 nM.

For `COc1nc(N2CCC(C(=O)N3Cc4cncc(C#N)c4OC[C@H]3C)CC2)ncc1F` [Example 120, (3R)-4-(1-(5-fluoro-4-methoxypyrimidin-2-yl)piperidine-4-carbonyl)-3-methyl-2,3,4,5-tetrahydropyrido[3,4-f][1,4]oxazepine-9-carbonitrile], the IC50 lay within 0.1 to 100 nM.

For the compound `N#Cc1cncc2c1OCCN(C(=O)C1(C#N)CCN(c3ncc(F)cn3)CC1)C2` [Example 182, 4-[4-cyano-1-(5-fluoropyrimidin-2-yl)piperidine-4-carbonyl]-3,5-dihydro-2H-pyrido[3,4-f][1,4]oxazepine-9-carbonitrile], the IC50 is 100 to 1000 nM.

The test is the same for the next values; noted with them: GST-hRIPK1 (8-327), mean of at least two independent experiments.
Compound `N#Cc1cncc2c1OCCN(C(=O)C1(F)CCN(c3ncc(F)cn3)CC1(F)F)C2` (single isomer, unassigned) [Example 296, 4-[3,3,4-Trifluoro-1-(5-fluoropyrimidin-2-yl)piperidine-4-carbonyl]-3,5-dihydro-2H-pyrido[3,4-f][1,4]oxazepine-9-carbonitrile] showed an IC50 of 0.1 to 100 nM.

Compound `N#Cc1cncc2c1OCCN(C(=O)C1(F)CCN(c3ccc4c(n3)CNC4)CC1)C2` [Example 286, 4-[1-(6,7-dihydro-5H-pyrrolo[3,4-b]pyridin-2-yl)-4-fluoro-piperidine-4-carbonyl]-3,5-dihydro-2H-pyrido[3,4-f][1,4]oxazepine-9-carbonitrile] gave an IC50 of more than 1000 nM.

As for `CC(C)(C(=O)N1CCOc2c(C#N)cncc2C1)C1CC(n2ccnn2)C1` (stereo not drawn) [Example 276, 4-[2-Methyl-2-[3-(triazol-1-yl)cyclobutyl]propanoyl]-3,5-dihydro-2H-pyrido[3,4-f][1,4]oxazepine-9-carbonitrile], the 50% inhibitory concentration (IC50) is more than 1000 nM.

Regarding `N#Cc1cncc2c1OCCN(C(=O)C1(F)CCN(c3ncc(F)n4ncnc34)CC1)C2` [Example 294, 4-[4-fluoro-1-(5-fluoro-[1,2,4]triazolo[1,5-a]pyrazin-8-yl)piperidine-4-carbonyl]-3,5-dihydro-2H-pyrido [3,4-f][1,4]oxazepine-9-carbonitrile], the IC50 is 0.1 to 100 nM.

Regarding `COc1nc(N2CCC(OC)(C(=O)N3CCOc4ccncc4C3)CC2)ncc1F` [Example 235, 3,5-dihydro-2H-pyrido[3,4-f][1,4]oxazepin-4-yl-[1-(5-fluoro-4-methoxy-pyrimidin-2-yl)-4-methoxy-4-piperidyl]methanone], the IC50 was 0.1 to 100 nM.

As for `CC1(C(=O)N2CCOc3c(C#N)cncc3C2)CCN(c2ncc(F)c(=O)[nH]2)CC1(F)F` (stereo not drawn) [Example 216, 4-[3,3-difluoro-1-(5-fluoro-6-oxo-1H-pyrimidin-2-yl)-4-methyl-piperidine-4-carbonyl]-3,5-dihydro-2H-pyrido[3,4-f][1,4]oxazepine-9-carbonitrile], the IC50 fell in the range of 100 to 1000 nM.

The compound `CC(C)(C(=O)N1CCOc2c(C#N)cncc2C1)C1CC(Cl)C1` (stereo not drawn) [Example 278, 4-[2-(3-chlorocyclobutyl)-2-methyl-propanoyl]-3,5-dihydro-2H-pyrido[3,4-f][1,4]oxazepine-9-carbonitrile] gave an IC50 of 0.1 to 100 nM.

For the compound `N#Cc1cncc2c1OCCN(C(=O)C1CCN(c3nccn4ncnc34)CC1(F)F)C2` (stereo not drawn) [Example 219, 4-[3,3-difluoro-1-([1,2,4]triazolo[1,5-a]pyrazin-8-yl)piperidine-4-carbonyl]-3,5-dihydro-2H-pyrido[3,4-f][1,4]oxazepine-9-carbonitrile], the IC50 was in the range of 100 to 1000 nM.
